Measured values published in PubChem BioAssay (NCI).
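A five-concentration, 48-hour dose response in 96-well plates underlies each endpoint, interpolated linearly between surrounding concentrations. Abbreviation: GI50, concentration required for 50% inhibition of growth. TGI: total growth inhibition.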

Legend:
Assay in all cases: NCI-60 cell line screen, 48 h
786-0 renal = tested on: 786-0 renal
A498 renal = tested on: A498 renal
A549 NSCLC = tested on: A549 NSCLC
ACHN renal = tested on: ACHN renal
BT-549 breast = tested on: BT-549 breast
CAKI-1 renal = tested on: CAKI-1 renal
CCRF-CEM leukemia = tested on: CCRF-CEM leukemia
COLO 205 colon = tested on: COLO 205 colon
DU-145 prostate = tested on: DU-145 prostate
EKVX NSCLC = tested on: EKVX NSCLC
HCC-2998 colon = tested on: HCC-2998 colon
HCT-116 colon = tested on: HCT-116 colon
HCT-15 colon = tested on: HCT-15 colon
HL-60(TB) leukemia = tested on: HL-60(TB) leukemia
HOP-62 NSCLC = tested on: HOP-62 NSCLC
HOP-92 NSCLC = tested on: HOP-92 NSCLC
HS 578T breast = tested on: HS 578T breast
HT29 colon = tested on: HT29 colon
IGROV1 ovarian = tested on: IGROV1 ovarian
K-562 leukemia = tested on: K-562 leukemia
KM12 colon = tested on: KM12 colon
LOX IMVI melanoma = tested on: LOX IMVI melanoma
MALME-3M melanoma = tested on: MALME-3M melanoma
MCF7 breast = tested on: MCF7 breast
MDA-MB-231 breast = tested on: MDA-MB-231 breast
MDA-MB-435 = tested on: MDA-MB-435
MOLT-4 leukemia = tested on: MOLT-4 leukemia
NCI-H226 lung = tested on: NCI-H226 lung
NCI-H23 lung = tested on: NCI-H23 lung
NCI-H460 lung = tested on: NCI-H460 lung
NCI-H522 lung = tested on: NCI-H522 lung
NCI/ADR-RES ovarian = tested on: NCI/ADR-RES ovarian
OVCAR-3 ovarian = tested on: OVCAR-3 ovarian
OVCAR-4 ovarian = tested on: OVCAR-4 ovarian
OVCAR-5 ovarian = tested on: OVCAR-5 ovarian
OVCAR-8 ovarian = tested on: OVCAR-8 ovarian
PC-3 prostate = tested on: PC-3 prostate
RPMI-8226 leukemia = tested on: RPMI-8226 leukemia
RXF 393 renal = tested on: RXF 393 renal
SF-268 CNS = tested on: SF-268 CNS
SF-295 CNS = tested on: SF-295 CNS
SF-539 CNS = tested on: SF-539 CNS
SK-MEL-2 melanoma = tested on: SK-MEL-2 melanoma
SK-MEL-28 melanoma = tested on: SK-MEL-28 melanoma
SK-MEL-5 melanoma = tested on: SK-MEL-5 melanoma
SK-OV-3 ovarian = tested on: SK-OV-3 ovarian
SN12C renal = tested on: SN12C renal
SNB-19 CNS = tested on: SNB-19 CNS
SNB-75 CNS = tested on: SNB-75 CNS
SR leukemia = tested on: SR leukemia
SW-620 colon = tested on: SW-620 colon
T-47D breast = tested on: T-47D breast
TK-10 renal = tested on: TK-10 renal
U251 CNS = tested on: U251 CNS
UACC-257 melanoma = tested on: UACC-257 melanoma
UACC-62 melanoma = tested on: UACC-62 melanoma
UO-31 renal = tested on: UO-31 renal

CCN(CC)c1ccc(/C=N/NC(=O)c2ccc(S(N)(=O)=O)cc2)cc1
GI50 (786-0 renal): 0.61 µM | TGI (786-0 renal): 4.67 µM | GI50 (A498 renal): 4.26 µM | TGI (A498 renal): 29.3 µM | GI50 (A549 NSCLC): 1.78 µM | TGI (A549 NSCLC): > 100 µM | GI50 (ACHN renal): 0.605 µM | TGI (ACHN renal): 22.3 µM | GI50 (BT-549 breast): 1 µM | TGI (BT-549 breast): 8.29 µM | GI50 (CAKI-1 renal): 0.488 µM | TGI (CAKI-1 renal): 25.8 µM | GI50 (CCRF-CEM leukemia): 0.178 µM | TGI (CCRF-CEM leukemia): > 100 µM | GI50 (COLO 205 colon): 0.437 µM | TGI (COLO 205 colon): 19 µM | GI50 (DU-145 prostate): 0.828 µM | TGI (DU-145 prostate): > 58.6 µM | GI50 (EKVX NSCLC): 0.782 µM | TGI (EKVX NSCLC): > 82.1 µM | GI50 (HCC-2998 colon): 0.612 µM | TGI (HCC-2998 colon): 51 µM | GI50 (HCT-116 colon): 0.324 µM | TGI (HCT-116 colon): 19.2 µM | GI50 (HCT-15 colon): 0.419 µM | TGI (HCT-15 colon): 44.2 µM | GI50 (HL-60(TB) leukemia): 0.255 µM | TGI (HL-60(TB) leukemia): 4.38 µM | GI50 (HOP-62 NSCLC): 0.338 µM | TGI (HOP-62 NSCLC): 11.9 µM | GI50 (HOP-92 NSCLC): 0.43 µM | TGI (HOP-92 NSCLC): 14.6 µM | GI50 (HS 578T breast): 2.37 µM | TGI (HS 578T breast): 40.8 µM | GI50 (HT29 colon): 0.614 µM | TGI (HT29 colon): 17.3 µM | GI50 (IGROV1 ovarian): 0.69 µM | TGI (IGROV1 ovarian): > 100 µM | GI50 (K-562 leukemia): 0.479 µM | TGI (K-562 leukemia): > 100 µM | GI50 (KM12 colon): 0.811 µM | TGI (KM12 colon): > 63.3 µM | GI50 (LOX IMVI melanoma): 0.271 µM | TGI (LOX IMVI melanoma): 4.51 µM | GI50 (MALME-3M melanoma): 0.856 µM | TGI (MALME-3M melanoma): 11.3 µM | GI50 (MCF7 breast): 0.488 µM | TGI (MCF7 breast): > 100 µM | GI50 (MDA-MB-231 breast): 0.525 µM | TGI (MDA-MB-231 breast): 64.3 µM | GI50 (MDA-MB-435): 0.975 µM | TGI (MDA-MB-435): > 100 µM | GI50 (MOLT-4 leukemia): 0.373 µM | TGI (MOLT-4 leukemia): 15 µM | GI50 (NCI-H226 lung): 1.39 µM | TGI (NCI-H226 lung): 23.9 µM | GI50 (NCI-H23 lung): 2.11 µM | TGI (NCI-H23 lung): > 100 µM | GI50 (NCI-H460 lung): 0.51 µM | TGI (NCI-H460 lung): 10.4 µM | GI50 (NCI-H522 lung): 0.403 µM | TGI (NCI-H522 lung): 23.2 µM | GI50 (NCI/ADR-RES ovarian): 3.11 µM | TGI (NCI/ADR-RES ovarian): > 100 µM | GI50 (OVCAR-3 ovarian): 0.244 µM | TGI (OVCAR-3 ovarian): > 100 µM | GI50 (OVCAR-4 ovarian): 0.397 µM | TGI (OVCAR-4 ovarian): > 77.6 µM | GI50 (OVCAR-5 ovarian): 2.58 µM | TGI (OVCAR-5 ovarian): > 100 µM | GI50 (OVCAR-8 ovarian): 0.406 µM | TGI (OVCAR-8 ovarian): > 52.6 µM | GI50 (PC-3 prostate): 0.469 µM | TGI (PC-3 prostate): 73.4 µM | GI50 (RPMI-8226 leukemia): 2.84 µM | TGI (RPMI-8226 leukemia): 13.7 µM | GI50 (RXF 393 renal): 1.1 µM | TGI (RXF 393 renal): 3.8 µM | GI50 (SF-268 CNS): 0.328 µM | TGI (SF-268 CNS): 25.8 µM | GI50 (SF-295 CNS): 0.739 µM | TGI (SF-295 CNS): 18.3 µM | GI50 (SF-539 CNS): 0.488 µM | TGI (SF-539 CNS): 8.11 µM | GI50 (SK-MEL-2 melanoma): 3.17 µM | TGI (SK-MEL-2 melanoma): 20.7 µM | GI50 (SK-MEL-28 melanoma): 0.495 µM | TGI (SK-MEL-28 melanoma): > 67.4 µM | GI50 (SK-MEL-5 melanoma): 1.42 µM | TGI (SK-MEL-5 melanoma): > 100 µM | GI50 (SK-OV-3 ovarian): 0.533 µM | TGI (SK-OV-3 ovarian): 21.4 µM | GI50 (SN12C renal): 0.957 µM | TGI (SN12C renal): > 100 µM | GI50 (SNB-19 CNS): 1.12 µM | TGI (SNB-19 CNS): > 64.8 µM | GI50 (SNB-75 CNS): 0.496 µM | TGI (SNB-75 CNS): 5.91 µM | GI50 (SR leukemia): 0.0839 µM | TGI (SR leukemia): 3.07 µM | GI50 (SW-620 colon): 0.597 µM | TGI (SW-620 colon): > 100 µM | GI50 (T-47D breast): 0.686 µM | TGI (T-47D breast): > 72.3 µM | GI50 (TK-10 renal): 1.76 µM | TGI (TK-10 renal): 47.8 µM | GI50 (U251 CNS): 0.268 µM | TGI (U251 CNS): 18.7 µM | GI50 (UACC-257 melanoma): 0.869 µM | TGI (UACC-257 melanoma): 7.9 µM | GI50 (UACC-62 melanoma): 0.499 µM | TGI (UACC-62 melanoma): 8.78 µM | GI50 (UO-31 renal): 0.487 µM | TGI (UO-31 renal): 24 µM
